Like-named read-outs stand apart in the source and are kept apart here.
Tests used:
[1] = tested on: taenia coli; experiment: Antagonistic activity to calcium in the taenia coli of guinea pigs (CaCl2-induced contractions, in vitro); assay type: cell-based, Hartley albino guinea pigs; conditions: for IC50: Cavia porcellus, 10 min, read-out: Calcium antagonistic activity in vitro ED50; for Inhibition of contractions due to CaCl2 after washing of the tissue: taenia coli, repeated washing
Description: Antagonistic Activity to Calcium in the Taenia Coli of Guinea Pigs
Hartley albino guinea pigs of average weight 450 g were used. The calcium antagonistic activity was determined stimulating the taenia coli, previously depolarized, with a single submaximal concentration of CaCl2 (10^-3 M), at intervals of 20 minutes (according to the method Naunyn Schmied. Arch. Pharmacol. 318, 235 (1982)). The products were left in contact with the preparation for 10 minutes. The ED50 were calculated from the percentage of maximum inhibition.

[2] = tested on: Spontaneous Hypertensive Rats (SHR); experiment: Hypotensive activity in spontaneous hypertensive rats (SHR); assay type: in vivo, Male SHR (Okamoto) rats; conditions: for ED (25%): Rattus norvegicus, po, p.o. in 0.4% carboxymethyl cellulose, systolic arterial pressure, read-out: Hypotensive activity in SHR ED^SABP -25%; for Hypotensive activity compared with Nifedipine / Duration of hypotensive activity (still present after) / Hypotensive activity relative to Nifedipine: p.o.; for Hypotensive activity compared with Nifedipine: versus Nifedipine; for Hypotensive activity relative to Nifedipine: multiple of Nifedipine activity
Description: Hypotensive Activity in Spontaneous Hypertensive Rats (SHR)
Male SHR (Okamoto), of 70-100 days of age were used. The systolic arterial pressure (SABP) was determined by applying to the tail of the animal a pressure transducer with a sleeve connected to a BP-Recorder (W-W Electronic of Basel). The animals were previously warmed to 39° C. for a period of 15-20 minutes in a ventilated chamber.
The rats were previously trained to the registration for 1-2 days prior to the start of the experiment which consisted of a basic registration, the pharmacological treatment and then of subsequent registrations one hour and three hours after the treatment.
All the products were administered orally (p.o.), suspended in 0.4% carboxymethyl cellulose (Methocel); the volume of vehicle was 2 ml per kg.
The compounds of formula (I) were tested at three dose levels and the value of ED-25% was determined.

[3] = in vivo; conditions: mouse, iv, mice, i.v. in dimethylsulfoxide, after seven days, Litchfield and Wilcoxon
Description: Intravenous Toxicity in Mice
Male CD1 mice from Charles River (Italy), weighing 25 g were used. Compounds were administered intravenously (i.v.), dissolved in dimethylsulfoxide, and the volume of administration was 0.01 ml per 10 g of body weight. The LD50 after seven days, was calculated according to the method of Litchfield and Wilcoxon (Experimental Therapeutics 96, 99 (1949)).

[4] = guinea pig taenia coli, depolarized, CaCl2 10^-3 M, 10 min contact, from maximum inhibition

SMILES | IC50 [1, 4] | ED (25%) [2] | LD50 at 168 h [3] | Inhibition of contractions due to CaCl2 after washing of the tissue [1] | Hypotensive activity compared with Nifedipine [2] | Duration of hypotensive activity (still present after) [2] | Hypotensive activity relative to Nifedipine [2] | IC50 [1]
COC(=O)C1=C(C)NC(C)=C(C(=O)OCCN2CCN(c3ccccc3)CC2)C1c1cccc([N+](=O)[O-])c1 (stereo not drawn) [0219A, 2-(4-Phenyl)piperazino-ethyl 2,6-dimethyl-4-(3-nitrophenyl)-5-methoxycarbonyl-1,4-dihydropyridine-3-carboxylate] | 2.4 nM | 8.7 mg/kg | 8.6 mg/kg | – | – | – | – | –
COC(=O)C1=C(C)NC(C)=C(C(=O)OCCN2CCN(c3nccs3)CC2)C1c1cccc([N+](=O)[O-])c1 (stereo not drawn) [0240A, 2-[4-(2-Thiazolyl)]piperazino-ethyl 2,6-dimethyl-4-(3-nitrophenyl)-5-methoxycarbonyl-1,4-dihydropyridine-3-carboxylate] | 4.2 nM | 31 mg/kg | 7.1 mg/kg | – | – | – | – | –
COC(=O)C1=C(C)NC(C)=C(C(=O)OCCN2CCN(c3ncccn3)CC2)C1c1cccc([N+](=O)[O-])c1 (stereo not drawn) [0241A] | 4.6 nM | 72 mg/kg | 34.6 mg/kg | readily reversible | – | – | – | –
COC(=O)C1=C(C)NC(C)=C(C(=O)OCCN2CCN(c3ccccc3OC)CC2)C1c1cccc([N+](=O)[O-])c1 (stereo not drawn) [0242A, 2-[4-(2-Methoxyphenyl)]-piperazino-ethyl 2,6-dimethyl-4-(3-nitrophenyl)-5-methoxycarbonyl-1,4-dihydropyridine-3-carboxylate] | 3.4 nM | 13.8 mg/kg | 2.9 mg/kg | – | – | – | – | –
COC(=O)C1=C(C)NC(C)=C(C(=O)OCCN2CCN(c3ccccc3C)CC2)C1c1cccc([N+](=O)[O-])c1 (stereo not drawn) [0243A, 2-[4-(2-Tolyl)]piperazino-ethyl 2,6-dimethyl-4-(3-nitrophenyl)-5-methoxycarbonyl-1,4-dihydropyridine-3-carboxylate] | 1.9 nM | 6.6 mg/kg | 14.7 mg/kg | – | – | – | – | –
COC(=O)C1=C(C)NC(C)=C(C(=O)OCCN2CCN(c3ccccc3Cl)CC2)C1c1cccc([N+](=O)[O-])c1 (stereo not drawn) [0248B] | 3 nM | 13.8 mg/kg | 24.7 mg/kg | – | superior activity | – | – | –
COC(=O)C1=C(C)NC(C)=C(C(=O)OCCN2CCN(c3cccc(C(F)(F)F)c3)CC2)C1c1cccc([N+](=O)[O-])c1 (stereo not drawn) [0249B] | 22 nM | 6.6 mg/kg | 35.3 mg/kg | – | superior activity | ≥ 30 h | about twice the activity of Nifedipine | –
COC(=O)C1=C(C)NC(C)=C(C(=O)OCCN2CCN(c3ccc(F)cc3)CC2)C1c1cccc([N+](=O)[O-])c1 (stereo not drawn) [0250B] | 2.5 nM | 7.5 mg/kg | 17.7 mg/kg | – | superior activity | ≥ 30 h | about twice the activity of Nifedipine | –
COC(=O)C1=C(C)NC(C)=C(C(=O)OCCN2CCN(c3ccccn3)CC2)C1c1cccc([N+](=O)[O-])c1 (stereo not drawn) [0251B] | 4.6 nM | 34 mg/kg | 12.6 mg/kg | – | – | – | – | –
COC(=O)C1=C(C)NC(C)=C(C(=O)OCCN2CCN(c3cccc(Cl)c3)CC2)C1c1cccc([N+](=O)[O-])c1 (stereo not drawn) [0255B] | 3.5 nM | 6.3 mg/kg | 25.5 mg/kg | – | superior activity | – | – | –
COC(=O)C1=C(C)NC(C)=C(C(=O)OCCN2CCN(c3ccc(Cl)cc3)CC2)C1c1cccc([N+](=O)[O-])c1 (stereo not drawn) [0264B] | 6.4 nM | 6.3 mg/kg | 32.1 mg/kg | – | superior activity | ≥ 30 h | about twice the activity of Nifedipine | –
COC(=O)C1=C(C)NC(C)=C(C(=O)OCCN2CCN(c3ccc(OC)cc3)CC2)C1c1cccc([N+](=O)[O-])c1 (stereo not drawn) [0266B] | 3.6 nM | 10.7 mg/kg | 22.7 mg/kg | – | – | – | – | –
CC1=C(C(=O)OCCN2CCN(c3ccc(F)cc3)CC2)C(c2cccc([N+](=O)[O-])c2)C(C(=O)OCC(C)C)=C(C)N1 (stereo not drawn) [0282C] | 4.9 nM | 3.9 mg/kg | 27.5 mg/kg | – | – | – | – | –
COCCOC(=O)C1=C(C)NC(C)=C(C(=O)OCCN2CCN(c3ccc(F)cc3)CC2)C1c1cccc([N+](=O)[O-])c1 (stereo not drawn) [0283C] | 2.6 nM | 8.3 mg/kg | 7.8 mg/kg | – | – | – | – | –
CCOC(=O)C1=C(C)NC(C)=C(C(=O)OCCN2CCN(c3ccc(F)cc3)CC2)C1c1cccc([N+](=O)[O-])c1 (stereo not drawn) [0284C] | 1.3 nM | 5.3 mg/kg | 9.5 mg/kg | – | – | – | – | –
COC(=O)C1=C(C)NC(C)=C(C(=O)OCCN2CCN(c3ccc(Cl)c(Cl)c3)CC2)C1c1cccc([N+](=O)[O-])c1 (stereo not drawn) [0285C] | 10.5 nM | 10.2 mg/kg | 39 mg/kg | – | – | – | – | –
CC1=C(C(=O)OCCN2CCN(c3ccccc3)CC2)C(c2cccc([N+](=O)[O-])c2)C(C(=O)OCC(C)C)=C(C)N1 (stereo not drawn) [0289C, 2-(4-Phenyl)piperazinoethyl-2,6-dimethyl-4-(3-nitrophenyl)-5-isobutoxycarbonyl-1,4-dihydropyridine-3-carboxylate] | 6.3 nM | 2.2 mg/kg | 12 mg/kg | – | – | – | – | –
COCCOC(=O)C1=C(C)NC(C)=C(C(=O)OCCN2CCN(c3ccccc3)CC2)C1c1cccc([N+](=O)[O-])c1 (stereo not drawn) [0290C, 2-(4-Phenyl)piperazinoethyl-2,6-dimethyl-4-(3-nitrophenyl)-5-(2-methoxy)ethoxycarbonyl-1,4-dihydropyridine-3-carboxylate] | 3 nM | 16.7 mg/kg | 7.5 mg/kg | – | – | – | – | –
CCOC(=O)C1=C(C)NC(C)=C(C(=O)OCCN2CCN(c3ccccc3)CC2)C1c1cccc([N+](=O)[O-])c1 (stereo not drawn) [0291C] | 3.9 nM | 6.6 mg/kg | 25 mg/kg | – | – | – | – | –
CC1=C(C(=O)OCCN2CCN(c3ccc(Cl)cc3)CC2)C(c2cccc([N+](=O)[O-])c2)C(C(=O)OCC(C)C)=C(C)N1 (stereo not drawn) [0292C, 2-[4-(4-Chlorophenyl)]piperazinoethyl-2,6-dimethyl-4-(3-nitrophenyl)-5-isobutoxycarbonyl-1,4-dihydropyridine-3-carboxylate] | 94 nM | 11.7 mg/kg | 35 mg/kg | – | – | – | – | –
COCCOC(=O)C1=C(C)NC(C)=C(C(=O)OCCN2CCN(c3ccc(Cl)cc3)CC2)C1c1cccc([N+](=O)[O-])c1 (stereo not drawn) [0293C, 2-[4-(4-Chlorophenyl)]piperazinoethyl-2,6-dimethyl-4-(3-nitrophenyl)-5-(2-methoxy)ethoxycarbonyl-1,4-dihydropyridine-3-carboxylate] | 4.1 nM | 10.5 mg/kg | 16 mg/kg | – | – | – | – | –
CCOC(=O)C1=C(C)NC(C)=C(C(=O)OCCN2CCN(c3ccc(Cl)cc3)CC2)C1c1cccc([N+](=O)[O-])c1 (stereo not drawn) [0294C, 2-[4-(4-Chlorophenyl)]piperazinoethyl-2,6-dimethyl-4-(3-nitrophenyl)-5-ethoxycarbonyl-1,4-dihydropyridine-3-carboxylate] | 5.1 nM | 4.2 mg/kg | 19 mg/kg | – | – | – | – | –
COC(=O)C1=C(C)NC(C)=C(C(=O)OCCN(C)Cc2ccccc2)C1c1cccc([N+](=O)[O-])c1 (stereo not drawn) [Nicardipine, reference compound] | 2.3 nM | 8.6 mg/kg | – | – | – | – | – | –
COC(=O)C1=C(C)NC(C)=C(C(=O)OC)C1c1ccccc1[N+](=O)[O-] [Nifedipine, reference compound] | – | 25 mg/kg | – | readily reversible | – | – | – | 2.6 nM
CCOC(=O)C1=C(C)NC(C)=C(C(=O)OC)C1c1cccc([N+](=O)[O-])c1 (stereo not drawn) [Nitrendipine, reference compound] | 1.9 nM | – | – | – | – | – | – | –

Reference: patent US4894460A (Pierrel S.p.A., priority 1982, dated 1990)
